Laboratory results published in patent US7270833B2, “Cardioplegic solution” (Jolife AB, priority 2000, dated 2007).

What was measured:
[1] = tested on: pigs with electrically induced ventricular fibrillation; test: Internal cardiopulmonary resuscitation by continuous left ventricle infusion of potassium chloride, followed by V-A ECMO; assay type: in vivo
Protocol: The purpose of the experiment was to evaluate the effects of continuous potassium chloride infusion during internal CPR with a catheter inserted into the left ventricle and to investigate the need for ECMO (extracorporeal membrane oxygenation) after high dose potassium chloride treatment during CPR, to obtain return of ROSC after prolonged CPR.
The haemodynamic parameters continuously was measured and stored as mean values every 5 second. Blood gases was analyzed with a Radiometer™ ABL 555® blood gas machine. Drug administration (Addex® potassium 4 mmol/ml, Fresenius Kabi, Uppsala, Sweden. 40 mg/ml papaverin, NM Pharma, Stockholm, Sweden.) during CPR was given according a specific protocol.
The following data parameters were measured and stored as mean values every 5 seconds throughout the experiment:
ECG, arterial pressure (SAP/MAP/DAP), central venous pressure (CVP), coronary perfusion pressure (CPP), carotid flow (CF), temperature, urine production (every 15 min), and blood gases.
The blood gas (Radiometer™, ABL 555®) data parameter were measured and stored intermittently or written down by hand throughout the experiment.
Electrically ventricular fibrillation was induced electrically in healthy test pigs (25-80 kg in body weight) at normothermic conditions (a body temperature of 38° C.). After 90 seconds of untreated ventricular fibrillation internal heart massage started manually and continued for 60 min. At the same time a booster injection of 10 ml potassium (Addex® potassium 4 mmol/ml, Fresenius Kabi, Uppsala, Sweden) and 3 ml papaverin sulfate (Papaverin 40 mg/ml, NM Pharma, Stockholm, Sweden) was given. Directly after a potassium infusion (Addex® potassium 4 mmol/ml, Fresenius Kabi, Uppsala, Sweden) was started (100 ml/h for 20 min, 50 ml/h for 20 min, 20 ml/h for 20 min). […] After 60 minutes of resuscitation V-A (venoarterial) ECMO was established and by ultrafiltration the serum potassium ion concentration was reduced towards normal levels.
After the 6-hour test period, the animal was put to death with a euthanasia solution.

[2] = tested on: pigs with ventricular fibrillation; test: Potassium chloride cardioplegia during heart compressions in pigs with induced ventricular fibrillation; assay type: in vivo, pig; conditions: for development of stone heart: pigs, induced ventricular fibrillation, continuous infusion of potassium chloride, heart compressions for 1 hour
Protocol: Due to the access to the new external chest compression machine, “Lucas”, we have run extensive experiments in pigs. Until now we have run experiments in 5 years and used over 800 pigs. This new machine is much more efficient than manual compression of the chest. About 30% of the pigs with ventricular fibrillation survived 1 hour of external heart massage with the machine in normothermia. With manual compression no pigs survived 15 minutes. […] We noticed that this started to happen after 15 minutes.
The idea then came up that if cardioplegia is induced to the heart during heart arrest, it would be possible to eliminate this stone heart condition and make 100% of the hearts survive 60 minutes of heart compression. In clinical heart surgery we routinely use potassium to accomplish depolarisation and cardioplegia. We induced ventricular fibrillation in pigs and then induced cardioplegia in the form of potassium chloride into a central venous needle or even directly into the left ventricle, thereby inducing cardioplegia. By a continuous infusion of potassium chloride we kept the heart in a cardioplegic condition. […] After 60 minutes we cannulated the pig in the femoral artery and vein and established an extracorporeal membrane oxygenation (ECMO). […] When cardioplegia is induced in a heart at normotermia, 90% of the need for oxygen is eliminated, and the heart is arrested in a relaxed condition. Such a heart is very easy to perform external or internal heart massage on.

[Cl-].[K+] [potassium chloride]
Event: heart beating ([1]; 25 kg Swedish domestic pig, Exp. Time 2:22:01, after stop K at 2:18:38, on bypass): spontaneously
Event: urine production ([1]; 25 kg Swedish domestic pig, Exp. Time 4:29:33, after off bypass at 3:42:43): normal urine
heart rhythm / ROSC ([1]; after 1 h of CPR in combination with potassium administration followed by ECMO, FIG. 1): ROSC came into effect
return of spontaneous heart beat after potassium chloride washed away by filtration ([2]; after 60 minutes of heart compressions, ECMO via femoral artery and vein): the heart started to beat spontaneously again
recovery of hearts after heart massage ([2]; experimental animal with acute ventricular fibrillation, after one hour of heart massage): possible to recover all hearts
development of stone heart [2]: without the development of stone heart
development of stone heart ([2]; listed as potassium): eliminates the development of stone heart
